In US8247211B2, “Glycopeptide antibiotics” (American Cyanamid Company, priority 2001, dated 2012):
≈ marks a conversion by molar mass, not a printed value. Values belong to the compound of their own block, whether it stands above or below them.

Tests used:
Test in all cases: In vitro antibacterial evaluation: minimum inhibitory concentration (MIC), broth dilution method
Type in all cases: cell-based
[1] = test system: Enterococcus sp.; conditions: 18 hours at 35° C.
Outline: (§1)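 Inoculum: 5×10^5 CFU/mL. Range: 64-0.06 μg/mL. Medium: Muller-Hinton II […]; NCCLS M7-A2 broth dilution. Endpoint: lowest concentration inhibiting growth. Strains include methicillin-, penicillin- and/or vancomycin-resistant clinical isolates.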

[2] = test system: Escherichia coli; conditions: Escherichia coli (GC 4560); 18 hours at 35° C.
Outline: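 First, organisms are seeded at 5×10^5 CFU/mL into Muller-Hinton II […]. Next, antibiotic is applied across 64-0.06 μg/mL by broth dilution (NCCLS M7-A2). Finally, the lowest inhibitory concentration is recorded as MIC.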

[3] = test system: Staphylococcus sp.; conditions: 18 hours at 35° C.
Outline: as §1

[4] = test system: Streptococcus sp.; conditions: 18 hours at 35° C.
Outline: as §1

[5] = broth dilution, inoculum 5×10^5 CFU/mL
[6] = Streptococcus agalactiae (GC 4564)
[7] = Streptococcus pneumoniae (ATCC 6301)
[8] = Streptococcus pneumoniae (GC 1894)
[9] = Streptococcus pneumoniae (GC 4565)
[10] = Streptococcus pyogenes (GC 4563)

- MIC Enterococcus faecium (GC 4557) ([1]; Enterococcus faecium (GC 4557)): 32 µg/mL (≈ 21.8 µM)
- MIC Enterococcus faecium (GC 4557) [1, 5]: 32 µg/mL (≈ 21.8 µM)
- MIC Escherichia coli (GC 4560) [2]: 32 µg/mL (≈ 21.8 µM)
- MIC Coagulase Negative Staphylococcus (GC 4547) [3]: 64 µg/mL (≈ 43.7 µM)
- MIC Coagulase Negative Staphylococcus (GC 4548) [3]: 64 µg/mL (≈ 43.7 µM)
- MIC Coagulase Negative Staphylococcus (GC 4549) [3]: 64 µg/mL (≈ 43.7 µM)
- MIC Coagulase Negative Staphylococcus (GC 4551) [3]: 64 µg/mL (≈ 43.7 µM)
- MIC Coagulase Negative Staphylococcus (GC 6257) [3]: 32 µg/mL (≈ 21.8 µM)
- MIC Staphylococcus aureus (GC 4541) [3]: 64 µg/mL (≈ 43.7 µM)
- MIC Staphylococcus aureus-SMITH (GC 4543) [3]: 64 µg/mL (≈ 43.7 µM)
- MIC Streptococcus agalactiae (GC 4564) [4, 6]: 32 µg/mL (≈ 21.8 µM)
- MIC Streptococcus pneumoniae (ATCC 6301) [4, 7]: 32 µg/mL (≈ 21.8 µM)
- MIC Streptococcus pneumoniae (GC 1894) [4, 8]: 16 µg/mL (≈ 10.9 µM)
- MIC Streptococcus pneumoniae (GC 4565) [4, 9]: 32 µg/mL (≈ 21.8 µM)
- MIC Streptococcus pyogenes (GC 4563) [4, 10]: 64 µg/mL (≈ 43.7 µM)
- MIC Streptococcus agalactiae (GC 4564) [4, 5]: 32 µg/mL (≈ 21.8 µM)
- MIC Streptococcus pneumoniae (ATCC 6301) [4, 5]: 32 µg/mL (≈ 21.8 µM)
- MIC Streptococcus pneumoniae (GC 1894) [4, 5]: 16 µg/mL (≈ 10.9 µM)
- MIC Streptococcus pneumoniae (GC 4565) [4, 5]: 32 µg/mL (≈ 21.8 µM)
- MIC Streptococcus pyogenes (GC 4563) [4, 5]: 64 µg/mL (≈ 43.7 µM)
Structure (SMILES): COc1ccc2cc(COC3C(OC4C(CO)OC(Oc5ccc(CC6NC(=O)C(C(C)c7ccccc7)NC(=O)CNC(=O)C(CO)NC(=O)C(C(O)C7CNC(=N)N7C7OC(CO)C(O)C(O)C7O)NC(=O)C(C(O)C7CNC(=N)N7)NC6=O)cc5)C(O)C4O)OC(CO)C(O)C3O)ccc2c1 (stereo not drawn) [Example 230c, Cyclo[glycyl-β-methylphenylalanyl-O-[4-O-[2-O-[(6-methoxy-2-naphthyl)methyl]hexopyranosyl]hexopyranosyl]tyrosyl-3-(2-iminoimidazolidin-4-yl)seryl-3-(3-hexopyranosyl-2-iminoimidazolidin-4-yl)serylseryl]]
- MIC Staphylococcus haemolyticus (GC 4546) [3]: 64 µg/mL (≈ 43.7 µM)

- MIC Enterococcus avium (GC 4558) ([1]; Enterococcus avium (GC 4558)): 4 µg/mL (≈ 2.68 µM)
- MIC Enterococcus faecalis (ATCC 29212) ([1]; Enterococcus faecalis (ATCC 29212)): 4 µg/mL (≈ 2.68 µM)
- MIC Enterococcus faecalis (GC 2242) ([1]; Enterococcus faecalis (GC 2242)): 4 µg/mL (≈ 2.68 µM)
- MIC Enterococcus faecalis (GC 2691) ([1]; Enterococcus faecalis (GC 2691)): 8 µg/mL (≈ 5.36 µM)
- MIC Enterococcus faecalis (GC 3059) ([1]; Enterococcus faecalis (GC 3059)): 4 µg/mL (≈ 2.68 µM)
- MIC Enterococcus faecalis (GC 4552) ([1]; Enterococcus faecalis (GC 4552)): 4 µg/mL (≈ 2.68 µM)
- MIC Enterococcus faecalis (GC 4553) ([1]; Enterococcus faecalis (GC 4553)): 4 µg/mL (≈ 2.68 µM)
- MIC Enterococcus faecalis (GC 4554) ([1]; Enterococcus faecalis (GC 4554)): 4 µg/mL (≈ 2.68 µM)
- MIC Enterococcus faecalis (GC 6189) ([1]; Enterococcus faecalis (GC 6189)): 4 µg/mL (≈ 2.68 µM)
- MIC Enterococcus faecium (GC 2243) ([1]; Enterococcus faecium (GC 2243)): 4 µg/mL (≈ 2.68 µM)
- MIC Enterococcus faecium (GC 4556) ([1]; Enterococcus faecium (GC 4556)): 4 µg/mL (≈ 2.68 µM)
- MIC Enterococcus faecium (GC 4557) ([1]; Enterococcus faecium (GC 4557)): 4 µg/mL (≈ 2.68 µM)
- MIC Enterococcus avium (GC 4558) [1, 5]: 4 µg/mL (≈ 2.68 µM)
- MIC Enterococcus faecalis (ATCC 29212) [1, 5]: 4 µg/mL (≈ 2.68 µM)
- MIC Enterococcus faecalis (GC 2242) [1, 5]: 4 µg/mL (≈ 2.68 µM)
- MIC Enterococcus faecalis (GC 2691) [1, 5]: 8 µg/mL (≈ 5.36 µM)
- MIC Enterococcus faecalis (GC 3059) [1, 5]: 4 µg/mL (≈ 2.68 µM)
- MIC Enterococcus faecalis (GC 4552) [1, 5]: 4 µg/mL (≈ 2.68 µM)
- MIC Enterococcus faecalis (GC 4553) [1, 5]: 4 µg/mL (≈ 2.68 µM)
- MIC Enterococcus faecalis (GC 4554) [1, 5]: 4 µg/mL (≈ 2.68 µM)
- MIC Enterococcus faecalis (GC 6189) [1, 5]: 4 µg/mL (≈ 2.68 µM)
- MIC Enterococcus faecium (GC 2243) [1, 5]: 4 µg/mL (≈ 2.68 µM)
- MIC Enterococcus faecium (GC 4556) [1, 5]: 4 µg/mL (≈ 2.68 µM)
- MIC Enterococcus faecium (GC 4557) [1, 5]: 4 µg/mL (≈ 2.68 µM)
- MIC Escherichia coli (GC 4560) [2]: 2 µg/mL (≈ 1.34 µM)
- MIC Coagulase Negative Staphylococcus (GC 4547) [3]: 2 µg/mL (≈ 1.34 µM)
- MIC Coagulase Negative Staphylococcus (GC 4548) [3]: 0.5 µg/mL (≈ 0.335 µM)
- MIC Coagulase Negative Staphylococcus (GC 4549) [3]: 0.5 µg/mL (≈ 0.335 µM)
- MIC Coagulase Negative Staphylococcus (GC 4551) [3]: 1 µg/mL (≈ 0.67 µM)
- MIC Coagulase Negative Staphylococcus (GC 6257) [3]: 0.5 µg/mL (≈ 0.335 µM)
- MIC Staphylococcus aureus (ATCC 29213) ([3]; Staphylococcus aureus (ATCC 29213)): 1 µg/mL (≈ 0.67 µM)
- MIC Staphylococcus aureus (GC 1131) ([3]; Staphylococcus aureus (GC 1131)): 2 µg/mL (≈ 1.34 µM)
- MIC Staphylococcus aureus (GC 3051) ([3]; Staphylococcus aureus (GC 3051)): 2 µg/mL (≈ 1.34 µM)
- MIC Staphylococcus aureus (GC 3053) ([3]; Staphylococcus aureus (GC 3053)): 2 µg/mL (≈ 1.34 µM)
- MIC Staphylococcus aureus (GC 4541) [3]: 2 µg/mL (≈ 1.34 µM)
- MIC Staphylococcus aureus (GC 4542) ([3]; Staphylococcus aureus (GC 4542)): 2 µg/mL (≈ 1.34 µM)
- MIC Staphylococcus aureus (GC 4544) ([3]; Staphylococcus aureus (GC 4544)): 2 µg/mL (≈ 1.34 µM)
- MIC Staphylococcus aureus (GC 4545) ([3]; Staphylococcus aureus (GC 4545)): 2 µg/mL (≈ 1.34 µM)
- MIC Staphylococcus aureus-SMITH (GC 4543) [3]: 1 µg/mL (≈ 0.67 µM)
- MIC Streptococcus agalactiae (GC 4564) [4, 6]: <0.12 µg/mL
- MIC Streptococcus pneumoniae (ATCC 6301) [4, 7]: <0.12 µg/mL
- MIC Streptococcus pneumoniae (GC 1894) [4, 8]: <0.12 µg/mL
- MIC Streptococcus pneumoniae (GC 4565) [4, 9]: <0.12 µg/mL
- MIC Streptococcus pyogenes (GC 4563) [4, 10]: <0.12 µg/mL
- MIC Streptococcus agalactiae (GC 4564) [4, 5]: <0.12 µg/mL
- MIC Streptococcus pneumoniae (ATCC 6301) [4, 5]: <0.12 µg/mL
- MIC Streptococcus pneumoniae (GC 1894) [4, 5]: <0.12 µg/mL
- MIC Streptococcus pneumoniae (GC 4565) [4, 5]: <0.12 µg/mL
- MIC Streptococcus pyogenes (GC 4563) [4, 5]: <0.12 µg/mL
Structure (SMILES): CC(c1ccccc1)C1NC(=O)CNC(=O)C(CO)NC(=O)C(C(O)C2CNC(=N)N2C2OC(CO)C(O)C(O)C2O)NC(=O)C(C(O)C2CNC(=N)N2)NC(=O)C(Cc2ccc(OC3OC(CO)C(OC4OC(CO)C(O)C(OCc5ccc(OCc6ccccc6)cc5)C4O)C(O)C3O)cc2)NC1=O (centres unmarked) [Example 231c]
- MIC Staphylococcus haemolyticus (GC 4546) [3]: 1 µg/mL (≈ 0.67 µM)
